# Test results taken from PubChem BioAssay AID1918952 (Molecular Pharmacology Branch, DTP, NCI, 2023).
# pIC50: −log10 of the molar value.
# Test system: LG0703-F948-PDC complex spheroid viability
# Assay: Anticancer human tumor LG0703-F948-PDC patient-derived lung adenocarcinoma cell line growth inhibition
# Details: for pIC50: curve of first compound; for viability, T/C: stronger effect = lower value
# Summary of the method: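 Multicellular complex spheroids of tumor cells with human endothelial cells (HUVEC) and mesenchymal stem cells; the LSD1 inhibitor iadademstat was combined with standard-of-care or investigational agents. Top concentration at or near clinical Cmax, half-log dilutions; final DMSO ≤0.25%.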
# [1] = second compound 0.1 µM, first compound 0.0316 µM
# [2] = second compound 0.1 µM, first compound 0.1 µM
# [3] = second compound 0.1 µM, first compound 0.316 µM
# [4] = second compound 0.1 µM, first compound 1 µM
# [5] = second compound 0.1 µM, first compound 3.16 µM
# [6] = second compound 0.1 µM, first compound 10 µM
# [7] = second compound 0.316 µM, first compound 0.0316 µM
# [8] = second compound 0.316 µM, first compound 0.1 µM
# [9] = second compound 0.316 µM, first compound 0.316 µM
# [10] = second compound 0.316 µM, first compound 1 µM
# [11] = second compound 0.316 µM, first compound 3.16 µM
# [12] = second compound 0.316 µM, first compound 10 µM
# [13] = second compound 1 µM, first compound 0.0316 µM
# [14] = second compound 1 µM, first compound 0.1 µM
# [15] = second compound 1 µM, first compound 0.316 µM
# [16] = second compound 1 µM, first compound 1 µM
# [17] = second compound 1 µM, first compound 3.16 µM
# [18] = second compound 1 µM, first compound 10 µM
# [19] = second compound 3.16 µM, first compound 0.0316 µM
# [20] = second compound 3.16 µM, first compound 0.1 µM
# [21] = second compound 3.16 µM, first compound 0.316 µM
# [22] = second compound 3.16 µM, first compound 1 µM
# [23] = second compound 3.16 µM, first compound 3.16 µM
# [24] = second compound 3.16 µM, first compound 10 µM
# [25] = second compound 10 µM, first compound 0.0316 µM
# [26] = second compound 10 µM, first compound 0.1 µM
# [27] = second compound 10 µM, first compound 0.316 µM
# [28] = second compound 10 µM, first compound 1 µM
# [29] = second compound 10 µM, first compound 3.16 µM
# [30] = second compound 10 µM, first compound 10 µM
# 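Also: spheroids exposed to agents for seven days before readout.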
# 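For viability, T/C in this document: 100% = DMSO vehicle control wells as normalization base.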
Compound,pIC50 (second compound 0.1 µM),pIC50 (second compound 0.316 µM),pIC50 (second compound 1 µM),pIC50 (second compound 3.16 µM),pIC50 (second compound 10 µM),"viability, T/C [1]","viability, T/C [2]","viability, T/C [3]","viability, T/C [4]","viability, T/C [7]","viability, T/C [8]","viability, T/C [9]","viability, T/C [10]","viability, T/C [13]","viability, T/C [14]","viability, T/C [15]","viability, T/C [16]","viability, T/C [19]","viability, T/C [20]","viability, T/C [21]",further results
CC(C)c1c(-c2ccccc2)nc2c(C#N)c[nH]n2c1=O + NC1CC1c1ccc(-c2cccc(O)c2)cc1,< 5.00,< 5.00,< 5.00,< 5.00,< 5.00,107%,102%,115%,94.3%,97.5%,106%,117%,108%,102%,109%,109%,109%,97.7%,93.4%,92.5%,"viability, T/C [5]: 110%; viability, T/C [6]: 82.7%; viability, T/C [11]: 104%; viability, T/C [12]: 91.8%; viability, T/C [17]: 90.6%; viability, T/C [18]: 69.7%; viability, T/C [22]: 99.8%; viability, T/C [23]: 80.3%; viability, T/C [24]: 82.3%; viability, T/C [25]: 97.9%; viability, T/C [26]: 97.6%; viability, T/C [27]: 94.9%; viability, T/C [28]: 85.3%; viability, T/C [29]: 88.8%; viability, T/C [30]: 74.2%"
CC1COCCN1c1cc(-c2ccnn2C)c2ccnc(-c3ccn[nH]3)c2n1 (stereo not given) + NC1CC1c1ccc(-c2cccc(O)c2)cc1,7.43,7.35,7.31,7.36,7.33,49.8%,32.7%,20.2%,7.17%,57.9%,33.9%,18.7%,6.39%,64.1%,27.9%,21.6%,6.68%,55.7%,31.4%,19.1%,"viability, T/C (second compound 0.1 µM, first compound 0.00316 µM): 80.4%; viability, T/C (second compound 0.1 µM, first compound 0.01 µM): 74.6%; viability, T/C (second compound 0.316 µM, first compound 0.00316 µM): 85.5%; viability, T/C (second compound 0.316 µM, first compound 0.01 µM): 72.3%; viability, T/C (second compound 1 µM, first compound 0.00316 µM): 73%; viability, T/C (second compound 1 µM, first compound 0.01 µM): 70.2%; viability, T/C (second compound 3.16 µM, first compound 0.00316 µM): 80.8%; viability, T/C (second compound 3.16 µM, first compound 0.01 µM): 77%; viability, T/C [22]: 6.21%; viability, T/C (second compound 10 µM, first compound 0.00316 µM): 91.1%; viability, T/C (second compound 10 µM, first compound 0.01 µM): 82.3%; viability, T/C [25]: 60.4%; viability, T/C [26]: 28.6%; viability, T/C [27]: 18.8%; viability, T/C [28]: 8.21%"
COc1ccc([C@@H](O)c2cc(-c3ncnc4cc(N5CCOCC5)ccc34)c(F)cc2Cl)nn1 + NC1CC1c1ccc(-c2cccc(O)c2)cc1,5.82,5.80,5.83,5.92,5.94,90.3%,110%,96.5%,61%,112%,98.2%,98.7%,68.2%,98.8%,96.7%,98.7%,63.8%,107%,101%,86.1%,"viability, T/C [5]: 27.2%; viability, T/C [6]: 3.8%; viability, T/C [11]: 23%; viability, T/C [12]: 4.64%; viability, T/C [17]: 21.7%; viability, T/C [18]: 3.41%; viability, T/C [22]: 59.2%; viability, T/C [23]: 16.3%; viability, T/C [24]: 2.59%; viability, T/C [25]: 108%; viability, T/C [26]: 99.4%; viability, T/C [27]: 90.4%; viability, T/C [28]: 57.9%; viability, T/C [29]: 7.24%; viability, T/C [30]: 2.33%"
